Test results reported in a melting point compilation (Tetko et al.; mined from patent text by program, amines drawn as free bases though some values may be those of a salt).

Compound	melting point [°C]
C=CCONC(=O)COc1cccc2c1c(C(=O)C(N)=O)c(CC)n2Cc1ccccc1	175 to 177
CC=CC(O)c1c(C(C)C)nc(C(C)C)c(CCCCC)c1-c1ccc(F)cc1 (stereo not given)	70 to 72
CCCCOc1c(CN)n(CC(C)C)c(=O)c2ccc(/C=C/C(N)=O)cc12	173 to 175
CCCCCCCCCCNC(=O)c1ccccc1N	72 to 74
N#Cc1ccc(N2CCOCC2)cc1	80 to 81
NC(=O)N1CC(Oc2ccccc2)C1	179 to 186
Cc1cn(C2CCCCC2)c(=O)nc1N	205 to 207
COC(=O)NC1CCC(Nc2ncc3c(N)cc(=O)n(CCCO)c3n2)CC1 (stereo not given)	190 to 191
CC1CN(c2c(F)c(F)c3c(=O)c(C(=O)O)cn(C4CC4)c3c2F)CCN1 (stereo not given)	235 to 237
N#CC(C(=O)c1ccc(C(F)(F)F)cc1S(=O)(=O)C1CCCCC1)C(=O)C1CC1 (stereo not given)	60 to 62
CCCCCCCCCCCCCCCCC(N)CO (stereo not given)	80.8 to 81.9
CCN1CCc2c(NC(C)=O)ccc(Br)c2C1	168 to 169
O=C1N(Cc2ccc3c(c2)OCCO3)c2ccccc2C12COc1cc3c(cc12)OCCO3 (stereo not given)	120 to 123
CCCCCCCCCCOc1cc(OCCCCCCCCCC)cc(N2CC(=O)OC(=O)C2)c1	62
CC(=O)OCC=Cc1ccccc1S(N)(=O)=O	94 to 95
C=CC=Cc1cc(Oc2cnc(N)nc2N)c(I)cc1C	195 to 197
CC12C=CC(=O)C=C1CCC1C2C(=O)CC2(C)C(SCc3ccc(Cl)c(Cl)c3)CCC12 (stereo not given)	131 to 133
CC(C)(C)OC(=O)N(C(=O)OC(C)(C)C)c1sc(-c2cncc(F)c2)nc1F	143
Cc1cc(CO)n(CCCOc2cc3c(cc2C)OC2(CC(C)(C)c4cc(O)c(C)cc4O2)CC3(C)C)n1 (stereo not given)	208 to 210
OC(CC(Br)=CBr)(CC(Br)=CBr)Cn1cncn1 (stereo not given)	100
CC(C)N(C(=O)n1nc(Oc2ccc(C(F)(F)F)cc2[N+](=O)[O-])cc1C(F)(F)F)C(C)C	118 to 120

Compound	melting point [°C]
Sc1nccc(-c2ccccc2)n1	203 to 205
CCOc1c(C(=O)c2ccccc2)cnc2[nH]ncc12	195 to 197
COc1cc2c(cc1C)CCN=C2C1(C2C=CCCC2)CCC1 (stereo not given)	70 to 73
CC1(C)CC(=O)Nc2cc3nc(-c4ccccc4)[nH]c3cc21	296 to 298
Nc1ccc(C2CCNC2)c(F)c1 (stereo not given)	108 to 109
O=C(OCC12CCCN(CCC1)C2)c1c[nH]c2ccccc12	207 to 209
N#CC1=Cc2ccccc2OC1	44 to 45
CC1C2=CCC3C(CCC4(C)C(O)CCC34)C2(C)CCC1O (stereo not given)	210 to 214
CC(=O)C=Cc1cccc(OCCF)c1OCCF	71 to 72
CC(=O)c1ccn2c(C)c(C)nc2c1N	195 to 197
CC(C)(C)OC(=O)N1CCN(Cc2nc(-c3cc(C(C)(C)C)c(O)c(C(C)(C)C)c3)cs2)CC1	108 to 109
CCCc1ccc(-c2nnc(SC)nn2)cc1	78 to 79
Cc1nn(-c2ccc(C#N)c(Cl)c2)c(C)c1Cc1ccc(C(=O)N2CCC(O)CC2)cc1	153 to 154
CN1CCC(c2c(O)cc(O)c3c(=O)cc(Sc4ccccc4)oc23)C(O)C1 (stereo not given)	82
Cc1ccc(NC(=O)Nc2ccc(-c3c(Cc4cccnc4)sc4ncnc(N)c34)cc2)cc1	220 to 223
CN(CCCCCNC(=NCCSCc1csc(NC(=N)N)n1)NC#N)CCC(c1ccc(Cl)cc1)c1ccccn1 (stereo not given)	87 to 90
CCOC(=O)c1c(C)cc(C(=O)O)c(NC=O)c1C	144 to 146
CCOC(=O)C1=C(N)NC(C)=C(C(=O)OC)C1c1ccccc1C#N (stereo not given)	224
COc1ccc(C=C(C#N)C#N)cc1OC	108
CC(=O)c1nc(-c2ccncc2C)[nH]c1C	185 to 187

Now from value to compound:

melting point [°C]	Compound
240 to 242	Oc1ccc2c(c1)COc1c-2cc2ccc(O)cc2c1-c1ccccc1F
95 to 98	COc1ccc(S(=O)(=O)n2c(CCC(=O)O)cc3cc(Cl)ccc32)cc1
109 to 113	CC1=NN(c2ccc(Cl)cc2)C(=O)C1C(=O)Nc1ccc(F)cc1 (stereo not given)
111 to 112	COC(=O)CS(=O)(=O)Nc1ccc(F)c(C(F)(F)F)c1
260	CCN(CC)C(=O)Nc1ccc(S(=O)(=O)N2C(=O)C(NCCN3CCNCC3)(c3ccccc3Cl)c3cc(Cl)ccc32)cc1 (stereo not given)
160	CN1C(=O)COC(c2cccc(Cl)c2)c2cc(C(O)(c3ccc(Cl)cc3)c3cncn3C)ccc21 (stereo not given)
191 to 193	COC(=O)C1=Cc2cc(-c3ccc(OC)cc3)ccc2S(=O)(=O)CC1
75 to 80	CNC(=O)N1CCc2cc(OC)c(OC)c(O)c2C1Cc1cccc(OC)c1 (stereo not given)
163	COC(=O)c1ccc(C(C)(O)c2cc3cc(Cl)ccc3n2S(=O)(=O)c2ccc(C(C)C)cc2)cc1 (stereo not given)
157	O=C(CC1CCN(Cc2ccccc2)CC1)Nc1cncnc1NCc1ccc(F)cc1
119 to 121	Cn1cc(-c2ccccc2)c(=O)c(-c2cccc(OC(F)(F)C(F)F)c2)c1
91 to 93	O=C(O)C1=C(C(=O)Nc2ccc(Cl)cc2F)CCCC1
249 to 251	CC(=O)NN=C(C)c1ccc2nnn(Cc3ccc4ncccc4c3)c2n1
169 to 172	CCOC(=O)c1cncc(-c2cnc3c(c2)N(Cc2cc(F)ccc2F)CCN3)c1
95 to 97	Cc1cc(SCC#Cc2ccccc2C(F)(F)F)ccc1OCC(=O)O
140	O=[N+]([O-])c1ccccc1NOS(=O)(=O)c1ccccc1
140 to 141	CCOCCOC(=O)C(=O)Nc1nc(-c2cc(OC)ccc2OC)cs1
207 to 210	Cc1ccc(Nc2nc(=O)cc(N)n2-c2ccccc2)cc1
135 to 138	Cc1ccc(Nc2cc(C)nc(-n3nc(C)cc3C)n2)cc1
201 to 204	O=C1NC(=O)C(Cc2ccc3oc(Cc4ccc(O)cc4)nc3c2)S1 (stereo not given)

melting point [°C]	Compound
84	CCN(CC)C(=O)Oc1nc(-c2ccc(OC)cc2)cc2ccccc12
177 to 178	CSC1C(=O)Nc2cc(-c3ccccc3)ccc21 (stereo not given)
177 to 178	Cc1ccc2c(c1)C(C1=CCN(C(C)O)CC1)CC2(O)c1ccc(F)cc1 (stereo not given)
190	COC(=O)c1ccc(OC(=O)CCC(=O)Oc2ccc(C(=O)OC)cc2)cc1
121 to 123	NS(=O)(=O)Oc1ccc(Cl)c(Cl)c1
201 to 204	O=C1c2ccccc2-c2c1c1ccccc1c(=O)n2CCO
154 to 157	Oc1ccccc1C=Nc1ccc(O)c2ccccc12
139 to 141	CS(=O)(=O)c1ccc(-c2cnn(Cc3ccc(Cl)s3)c(=O)c2-c2ccc(F)cc2)cc1
51 to 54	CCC(=O)c1ccc(OC)c(Cl)c1Cl
230 to 232	COc1ccc(C(=O)Nc2ccncc2)c2c3ccccc3n(Cc3ccc(F)cc3)c12
232 to 234	CC(C)Oc1ccc2ncn(/C=C/C(=O)O)c(=O)c2c1
147 to 149	COc1ccc2c(c1)c(OC(C)C)c(C(N)=O)n2C
> 250	NCC1Cc2cc(-c3ccc(Cl)cc3)cc(F)c2O1 (stereo not given)
115	CCC(=O)C1c2cccc(O)c2C(=O)c2c(O)cccc21
154 to 157	CCCC(=O)Nc1cc2c(s1)CCN(C(C(=O)C1CC1)c1ccccc1F)C2 (stereo not given)
100 to 101	CCC(CC)c1nn(-c2ccc(C(F)(F)F)cn2)cc1CCCOc1c(CC(=O)O)cccc1OC
173 to 174	CCN1C=C(C(=O)O)C(=O)CC1c1ccc(OC)cc1 (stereo not given)
242 to 244	COCc1cccc(CNC(=O)c2nc3scc(COCc4ccc(C(=O)O)cc4)c3c(=O)[nH]2)c1
148 to 149	CCOC(=O)c1cc2cc(Oc3ccc(S(C)(=O)=O)cc3)cc(OCc3ccccc3)c2[nH]1
69 to 71	CCCCOCCN(CCCCCSc1nc(-c2ccccc2)c(-c2ccccc2)[nH]1)C(=O)Nc1ccc(F)cc1F

melting point [°C]	Compound
64 to 65	O=C(NO)[C@H]1[C@H](O)CCN1C(=O)c1ccc(OC(F)(F)F)cc1
174 to 175	COc1ccc(CC2SC(=O)NC2=O)c2c1N(Cc1ccc(N)cc1)C(=O)CC2 (stereo not given)
126 to 127	O=C(O)Cc1cccc(OCCCc2cc(-c3ccc(C(F)(F)F)cc3)no2)c1
102 to 103	COc1ccc(-n2ncc3c2-c2ccccc2C3)cc1
246 to 247	CN(c1cccc2cc(-c3ncc(CCC(N)=O)s3)[nH]c12)S(=O)(=O)c1cccs1
103 to 104	COC(=O)COc1cccc(NC(=O)c2cc(-c3cccc(F)c3)ccc2F)c1
139 to 141	O=C(NC(=O)N(SN1CCCCC1=O)c1ccc(Oc2ccc(C(F)(F)F)cc2Cl)cc1F)c1c(F)cccc1F
140 to 141	Cc1oc(-c2ccccc2)nc1CCOc1cccc(OC(C)(C)C(=O)O)c1
> 300	O=C(O)c1cn(-c2ccc(F)cc2)c2c(F)c(N3Cc4ccc(Cl)cc4C3)c(F)cc2c1=O
262 to 263	O=C(O)COc1ccc2c(=O)c3cc(Cl)ccc3oc2c1Cl
232 to 235	CCn1nc(-c2sc(N)nc2-c2ccccc2)ccc1=O
75 to 80	CC(C)(C)C(OC(=O)Cl)C(Oc1ccc(Cl)cc1)N1CN=CN1 (stereo not given)
129 to 130	NC(=O)c1ccc(CCCNCC(O)COc2ccccc2)s1 (racemic)
169 to 170	CN1CCN(C(=NS(=O)(=O)c2ccc(F)cc2)N2CC(c3ccccc3)C(c3cccnc3)=N2)CC1 (stereo not given)
75 to 76	COc1cc(C)ccc1Oc1ccc(Br)cc1O
145 to 147	CN1CCN(c2nn(S(=O)(=O)c3ccccc3)c3ccc(Cl)cc23)CC1
85	CCC1(c2ccccc2)OC(C(=O)O)Oc2ccc(Cl)cc21 (stereo not given)
193	O=C(Oc1ccccc1)OC1c2nccnc2C(=O)N1c1ccc(Cl)cn1 (stereo not given)
202 to 205	Cc1cc2c(cc1Sc1ccc(C(=O)O)c(Cl)c1)C(C)(C)CCC2(C)C
